Source: patent US12612410B2 (CHILDREN'S HOSPITAL MEDICAL CENTER, priority 2020, dated 2026)

What follows are compounds tested against T1, FLT3 D835Y (Homo sapiens, UniProt P36888, D835Y) (assay: DiscoverX KINOMEscan competition binding, FLT3 D835Y).
T1 construct: host or cells: E. coli BL21-derived host (T7 phage) or HEK-293
T1 sequence (P36888 27-993 D835Y): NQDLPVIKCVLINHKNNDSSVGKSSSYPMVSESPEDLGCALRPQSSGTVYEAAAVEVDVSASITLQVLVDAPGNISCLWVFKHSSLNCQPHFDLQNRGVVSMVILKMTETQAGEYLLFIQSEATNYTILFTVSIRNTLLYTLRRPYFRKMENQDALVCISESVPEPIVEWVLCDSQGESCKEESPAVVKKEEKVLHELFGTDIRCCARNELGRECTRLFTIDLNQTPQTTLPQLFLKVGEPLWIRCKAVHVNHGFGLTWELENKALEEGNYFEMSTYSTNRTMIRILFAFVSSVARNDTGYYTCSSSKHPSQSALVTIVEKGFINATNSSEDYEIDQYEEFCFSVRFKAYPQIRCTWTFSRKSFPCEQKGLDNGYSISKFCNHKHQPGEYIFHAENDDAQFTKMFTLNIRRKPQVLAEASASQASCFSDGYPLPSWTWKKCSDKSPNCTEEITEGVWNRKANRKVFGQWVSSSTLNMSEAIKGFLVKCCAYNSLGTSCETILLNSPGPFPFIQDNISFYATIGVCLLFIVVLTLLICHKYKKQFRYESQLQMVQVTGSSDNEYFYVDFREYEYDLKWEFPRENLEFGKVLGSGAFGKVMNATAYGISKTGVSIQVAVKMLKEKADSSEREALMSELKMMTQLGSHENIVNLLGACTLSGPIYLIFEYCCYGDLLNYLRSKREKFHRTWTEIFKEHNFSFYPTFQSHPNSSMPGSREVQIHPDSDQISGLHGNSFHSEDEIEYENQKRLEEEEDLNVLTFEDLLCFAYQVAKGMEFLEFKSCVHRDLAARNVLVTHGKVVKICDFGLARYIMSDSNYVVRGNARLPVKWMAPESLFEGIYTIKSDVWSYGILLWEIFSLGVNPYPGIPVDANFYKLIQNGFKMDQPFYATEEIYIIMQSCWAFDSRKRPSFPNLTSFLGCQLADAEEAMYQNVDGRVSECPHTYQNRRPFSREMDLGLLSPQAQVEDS
From the text: Kinase binding data were obtained for various exemplary compounds prepared according to Examples 1-24 using the DiscoverX KINOMVIEscan® active site-directed competition binding site-directed assay protocol described below. […] As a result, the data report thermodynamic interaction affinities (Kd values), rather than IC50 values that are dependent on ATP concentrations. The assay uses a DNA-tagged version of the protein kinase, and an immobilized ligand bound to a solid support. Compounds that directly or indirectly prevent kinase binding to the immobilized ligand reduce the amount of kinase captured on the solid support, which is detected using an ultra-sensitive qPCR method. Affinity constants reported from the assay have been reported to be independent of the immobilized ligand used that is coupled to the solid support (See supplemental information in Fabian, M. A. et. al., (2005) Nat. Biotechnol. 23, 329-336; Wodicka, L. M. et. al., (2010) Chem. Biol. 17, 1241-1249.)
Kinase-tagged T7 phage strains were prepared in an E. coli host derived from the BL21 strain. E. coli were grown to log-phase and infected with T7 phage and incubated with shaking at 32° C. until lysis. The lysates were centrifuged and filtered to remove cell debris. The remaining kinases were produced in HEK-293 cells and subsequently tagged with DNA for qPCR detection. Streptavidin-coated magnetic beads were treated with biotinylated small molecule ligands for 30 minutes at room temperature to generate affinity resins for kinase assays. The liganded beads were blocked with excess biotin and washed with blocking buffer (SeaBlock (Pierce), 1% BSA, 0.05% Tween 20, 1 mM DTT) to remove unbound ligand and to reduce non-specific binding. Binding reactions were assembled by combining kinases, liganded affinity beads, and test compounds in 1× binding buffer (20% SeaBlock, 0.17×PBS, 0.05% Tween 20, 6 mM DTT). Test compounds were prepared as 111× stocks in 100% DMSO. Kds were determined using an 11-point 3-fold compound dilution series with three DMSO control points. All compounds for Kd measurements are distributed by acoustic transfer (non-contact dispensing) in 100% DMSO. The compounds were then diluted directly into the assays such that the final concentration of DMSO was 0.9%. All reactions were performed in polypropylene 384-well plates. Each was a final volume of 0.02 mL. The assay plates were incubated at room temperature with shaking for 1 hour and the affinity beads were washed with wash buffer (1×PBS, 0.05% Tween 20). The beads were then re-suspended in elution buffer (1×PBS, 0.05% Tween 20, 0.5 μM nonbiotinylated affinity ligand) and incubated at room temperature with shaking for 30 minutes. The kinase concentration in the eluates was measured by qPCR.
Binding constants (Kds) were calculated with a standard dose-response curve using the Hill equation. The Hill Slope was set to −1. Curves were fitted using a non-linear least square fit with the Levenberg-Marquardt algorithm.

Row | SMILES | Kd [pM]
1 | CC1(c2cn3c(-c4cccc(N[C@H]5CNC[C@@H]5F)n4)cnc3cn2)CC1 [Compound 1, N-((3S,4S)-4-fluoropyrrolidin-3-yl)-6-(6-(1-methylcyclopropyl)imidazo[1,2-a]pyrazin-3-yl)pyridin-2-amine] | 49
2 | CC1(c2cn3c(-c4cccc(N[C@@H]5CCNC5)n4)cnc3cn2)CC1 [Compound 3, (R)-6-(6-(1-methylcyclopropyl)imidazo[1,2-a]pyrazin-3-yl)-N-(pyrrolidin-3-yl)pyridin-2-amine] | 53
3 | CC1(c2cn3c(-c4cccc(N[C@H]5CNCC56CC6)n4)cnc3cn2)CC1 [Compound 5, (R)-N-(6-(6-(1-methylcyclopropyl)imidazo[1,2-a]pyrazin-3-yl)pyridin-2-yl)-5-azaspiro[2.4]heptan-7-amine] | 36
4 | FC(F)(F)C1(c2cn3c(-c4cccc(N[C@@H]5CCNC5)n4)cnc3cn2)CC1 [Compound 10, (R)-N-(pyrrolidin-3-yl)-6-(6-(1-(trifluoromethyl)cyclopropyl)imidazo[1,2-a]pyrazin-3-yl)pyridin-2-amine] | 44
5 | FC(F)c1cn2c(-c3cccc(N[C@H]4CNC[C@@H]4F)n3)cnc2cn1 [Compound 16, 6-(6-(difluoromethyl)imidazo[1,2-a]pyrazin-3-yl)-N-((3S,4S)-4-fluoropyrrolidin-3-yl)pyridin-2-amine] | 53
6 | FC(F)c1cn2c(-c3cccc(N[C@H]4CNCC[C@@H]4F)n3)cnc2cn1 [Compound 25, 6-(6-(difluoromethyl)imidazo[1,2-a]pyrazin-3-yl)-N-((3S,4S)-4-fluoropiperidin-3-yl)pyridin-2-amine] | 71
7 | CC(C)(O)c1cn2c(-c3cccc(N[C@@H]4CCCNC4)n3)cnc2cn1 [Compound 30, (R)-2-(3-(6-(piperidin-3-ylamino)pyridin-2-yl)imidazo[1,2-a]pyrazin-6-yl)propan-2-ol] | 470
8 | CC(C)(O)c1cn2c(-c3cccc(N[C@H]4CNCC[C@@H]4F)n3)cnc2cn1 [Compound 31, 2-(3-(6-(((3S,4S)-4-fluoropiperidin-3-yl)amino)pyridin-2-yl)imidazo[1,2-a]pyrazin-6-yl)propan-2-ol] | 180
9 | FC(F)(F)COc1cn2c(-c3cccc(N[C@@H]4CCNC4)n3)cnc2cn1 [Compound 38, (R)-N-(pyrrolidin-3-yl)-6-(6-(2,2,2-trifluoroethoxy)imidazo[1,2-a]pyrazin-3-yl)pyridin-2-amine] | 35
10 | F[C@H]1CNC[C@@H]1Nc1cccc(-c2cnc3cnc(C4CC4)cn23)n1 [Compound 50, 6-(6-cyclopropylimidazo[1,2-a]pyrazin-3-yl)-N-((3S,4S)-4-fluoropyrrolidin-3-yl)pyridin-2-amine] | 44
11 | Cn1cc(-c2cn3c(-c4cccc(N[C@H]5CNC[C@@H]5F)n4)cnc3cn2)cn1 [Compound 52, N-((3S,4S)-4-fluoropyrrolidin-3-yl)-6-(6-(1-methyl-1H-pyrazol-4-yl)imidazo[1,2-a]pyrazin-3-yl)pyridin-2-amine] | 64
